Reference: US9133203B2, “Pyrroloquinazoline compounds” (OREGON HEALTH & SCIENCE UNIVERSITY, priority 2013, dated 2015)

Assays:
[1] = test system: MDA-MB-468; assay: MTT antiproliferation assay in MDA-MB-468 cells; format: cell-based; details: Homo sapiens, concentration that limits growth by 50%, 72 hour incubation, mean ± SD, at least two experiments in duplicate
Experimental: (§1) The newly synthesized selectively mono-N-acylated compounds of series 4 and series 7 were evaluated as potential anticancer agents because compound 1 had been previously shown to display anticancer activity by inhibiting DHFR (Kuyper L F et al, J Med Chem 39, 892-903 (1996); incorporated by reference herein). Compounds of series 2 were not evaluated due to their poor solubility in DMSO. Two triple negative breast cancer (TN BC) cell lines (MDA-MB-231 and MDAMB-468) were selected to evaluate potential anticancer activity of the compounds of series 4 and series 7 by an MTT assay (Li B X et al, Bioorg Med Chem 20, 6811-6820 (2012); incorporated by reference herein.) TNBC represents a unique subtype of breast cancer clinically characterized by the lack of expression of estrogen receptor (ER), progesterone receptor (PR) and human epidermal growth factor receptor 2 (HER2). Subjects with triple negative breast cancer often have a poor prognosis (Kang S P et al, Curr Opin Obstet Gynecol 20, 40-46 (2008) and The Cancer Genome Atlas Network Nature, 490, 61-70 (2012); both of which are incorporated by reference herein). Current treatment options for TNBC are limited and novel agents are needed (Shastry M and Yardley D A, Curr Opin Obstet Gynecol 25, 40-48 (2013); incorporated by reference herein).
(§2) GI50 values represent the concentration that limits the growth of the cancer cells by 50% during a 72 hour incubation period. These are presented as mean±standard deviation of the mean of at least two independent experiments performed in duplicate.
(§3) TMTT assays for MDA-MB-231, MDA-MB-468 and HMEC were performed as described in Li et al, 2012 supra.

[2] = target: T1, human DHFR (Homo sapiens, UniProt P00374); assay: In vitro human DHFR inhibition; format: biochemical; details: DHFR assay kit, NADPH 60 μM, DHF 50 μM
T1 construct: purchased Sigma
T1 sequence (P00374 1-187): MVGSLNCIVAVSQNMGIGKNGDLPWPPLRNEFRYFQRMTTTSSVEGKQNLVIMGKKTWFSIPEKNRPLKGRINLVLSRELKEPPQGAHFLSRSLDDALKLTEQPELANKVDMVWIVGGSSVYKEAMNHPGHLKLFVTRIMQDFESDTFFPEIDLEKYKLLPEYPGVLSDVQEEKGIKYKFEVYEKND
Experimental: The human DHFR assay was done with DHFR assay kit (Sigma) following the manufacturer's instructions with minor modifications. Different concentrations of a test compound were incubated with human DHFR (0.1875 mU) and NADPH (60 μM) in the 1× assay buffer for 2 min at room temperature. Then DHF (50 μM) was added to initiate the reduction reaction, which was immediately monitored by absorbance at 340 nm every 12 s for 3 min. The final reaction volume was 100 μL and the final DMSO concentration was 1%. The reaction velocities were calculated as the slopes from the absorbance-time curves.

[3] = test system: normal human mammary epithelial cells (HMEC); assay: MTT viability assay in normal human mammary epithelial cells; format: cell-based
Experimental: FIG. 2 is a plot showing the effect of compound 7f on normal human mammary epithelial cells (HMEC.) HMEC were treated with the indicated concentrations of doxorubicin or 7f for 24 or 72 hours as indicated. Cells treated for 24 hours were further incubated in drug free media for 48 hours. The number of viable cells was determined by an MTT assay.
as §3

[4] = test system: CREB-mediated gene transcription; assay: CREB reporter assay (CRE-RLuc) in HEK 293T cells; format: cell-based, human; details: forskolin 10 μM
Experimental: FIG. 4 is a plot showing the activity of compound 7f on CREB mediated gene transcription in HEK 293T cells. HEK 293T cells were transfected with a CREB renilla luciferase reporter (CRE-RLuc). Then the cells were treated with increasing concentrations of 7f for 30 min before the addition of forskolin at a final concentration of 10 μM. The cells were further incubated for 5 hours before cell lysis and renilla luciferase activity measurement. The renilla luciferase activity was normalized to the protein concentration of the cell lysates and was expressed as relative luciferase unit (RLU)/μg of proteins.
Inhibition of CREB mediated transcription in HEK 293T cells by a CREB reporter assay was performed as described in Li and Xiao, 2009 supra.

[5] = test system: MDA-MB-231; assay: MTT antiproliferation assay in MDA-MB-231 cells; format: cell-based; details: Homo sapiens, concentration that limits growth by 50%, 72 hour incubation, mean ± SD, at least two experiments in duplicate
Experimental: as §1, §2, §3

[6] = target: T2, LMNB1 (Homo sapiens, UniProt P20700); assay: Chemoproteomic pulldown with probe 10 and Western blot, LMNB1; format: binding; details: MDA-MB-468 cells, photocrosslinking, streptavidin pulldown, Western blot
T2 construct: endogenous in cells; host or cells: MDA-MB-468
T2 sequence (P20700 1-586): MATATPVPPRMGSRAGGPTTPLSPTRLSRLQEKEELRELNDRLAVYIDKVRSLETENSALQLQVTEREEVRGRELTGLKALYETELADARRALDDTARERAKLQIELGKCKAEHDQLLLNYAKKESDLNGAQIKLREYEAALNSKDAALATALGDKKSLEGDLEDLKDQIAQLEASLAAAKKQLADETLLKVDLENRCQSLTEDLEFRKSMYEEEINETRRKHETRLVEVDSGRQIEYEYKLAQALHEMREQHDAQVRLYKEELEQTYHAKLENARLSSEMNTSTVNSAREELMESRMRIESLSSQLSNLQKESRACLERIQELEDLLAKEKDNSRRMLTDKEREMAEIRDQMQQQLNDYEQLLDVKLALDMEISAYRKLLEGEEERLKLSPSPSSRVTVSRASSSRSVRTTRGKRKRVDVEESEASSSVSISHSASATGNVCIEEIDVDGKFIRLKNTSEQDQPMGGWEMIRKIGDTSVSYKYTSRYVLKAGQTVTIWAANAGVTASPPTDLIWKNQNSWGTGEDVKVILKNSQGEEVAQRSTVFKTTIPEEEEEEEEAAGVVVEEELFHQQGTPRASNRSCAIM
Experimental: (§4) FIG. 5A is a schematic diagram of chemoproteomics experiments described in Example 38 below. MDA-MB-468 cells were treated with probe 10 with or without compound 7f. Then the cells were irradiated by UV followed by cell lysis. The lysates were clicked with a biotin-N3. The biotinylated proteins were pulled down with streptavidin beads. The bound proteins were trypsin-digested for LC-MS/MS analysis or eluted for Western analysis.
(§5) FIG. 5B is an image of a Western blot showing that 7f binds LMNA and LMNB1. The proteins from streptavidin-pulldown prepared as shown in FIG. 5A were subjected to Western blot with antibodies specific for the proteins indicated by the arrows to the right of the figure.
(§6) Unbiased chemical proteomics experiments involving photocrosslinking MDA-MB-468 cells treated with probe compound 10, clicking with a biotin-azide (biotin-N3), streptavidin pulldown and mass spectroscopic analyses identified nuclear lamins as the molecular targets of 7f. Nuclear lamins are type V intermediate filament proteins. In humans, there are three lamin genes (LMNA, LMNB1 and LMNB2) encoding four major proteins: LMNA, LMNC, LMNB1 and LMNB2. To further confirm that lamins are the targets, the biotinylated proteins prepared as shown in FIG. 5A were pulled down and analyzed by Western blot with individual antibodies (FIG. 5B).

[7] = test system: LMNA/C; assay: Chemoproteomic pulldown with probe 10 and Western blot, LMNA/C; format: binding, human; details: MDA-MB-468 cells, photocrosslinking, streptavidin pulldown, Western blot
Experimental: as §4, §5, §6

[8] = Solubility observations; format: physicochemical; details: high-quality 13C NMR spectra could not be obtained
[9] = Stability in HPLC mobile phase containing TFA; format: physicochemical; details: HPLC mobile phase water/acetonitrile with 0.1% TFA
Experimental: The solvents used for each reaction were purified from the Glass Contout solvent purification system. Melting points were determined in capillary tubes using MeI-Temp and are uncorrected. NMR spectra were recorded at 400 MHz (^1H NMR) and 100 MHz (^13C NMR). Chemical shifts (δ) are reported in ppm relative to the residual CHCl3 (1H, 7.26 ppm, 13C, 77.0 ppm) or DMSO (1H, 2.50 ppm, 13C, 39.5 ppm). The following abbreviations were used to describe the splitting pattern of individual peaks if applicable: s=singlet, d=doublet, t=triplet, q=quartet, m=multiplet. The coupling constants (J) were reported in Hertz (Hz). Silica gel flash chromatography was performed using 230-400 mesh silica gel (EMD). The mass spectra were obtained from an LTQ Orbitrap Discovery mass spectrometer (Thermo Scientific, West Palm Beach, Fla.) with electrospray operated either in positive or negative mode. All final compounds were confirmed to be of >95% purity based on HPLC (Waters) analysis using an XBridge C18 column (4.6×150 mm) and detected at 254 nm (due to the poor solubility, compound 2a-2d were not evaluated by HPLC). The mobile phases for HPLC are water and acetonitrile, both of which contain 0.1% TFA (for compounds 2e, 4e, and 7e which contain a TBS group, 0.01% TFA was used due to instability of these compounds in 0.1% TFA).

| GI50 [1] | melting point | GI50 [5] | SMILES | also measured |
| --- | --- | --- | --- | --- |
| 0.44 µM | 234 to 236 °C | 1.6 µM | Nc1nc(NC(=O)c2ccc3ccccc3c2)nc2ccc3[nH]ccc3c12 [Compound 7f] | concentration up to which human DHFR is not inhibited [2]: ≥ 10 µM; concentration up to which not toxic to normal HMEC ([3]; 72-h incubation): ≥ 5000 nM; concentration up to which CREB-mediated gene transcription is not inhibited [4]: ≥ 10 µM; competition of probe 10 pulldown of LMNB1 [6]: competed; competition of probe 10 pulldown of LMNA/C [7]: competed |
| 56.5 ± 18 µM | 236 to 238 °C | 32.6 ± 14 µM | CC(=O)Nc1nc(N)nc2ccc3[nH]ccc3c12 [Compound 4a] | – |
| – | 200 to 202 °C | – | CC(C)C(=O)n1ccc2c3c(N)nc(N)nc3ccc21 [Compound 2d] | – |
| > 100 µM | – | > 100 µM | CC(C)C(=O)Nc1nc(N)nc2ccc3[nH]ccc3c12 [Compound 4d] | – |
| 24.4 ± 3.33 µM | 228 to 230 °C | 21.4 ± 9.86 µM | CCC(=O)Nc1nc(N)c2c(ccc3[nH]ccc32)n1 [Compound 7b] | – |
| 3.34 ± 0.93 µM | – | 4.13 ± 0.54 µM | Nc1nc(N)c2c(ccc3[nH]ccc32)n1 [Compound 1, 7H-Pyrrolo[3,2-f]quinazoline-1,3-diamine, reference compound] | – |
| 53.5 ± 29.5 µM | 260 to 262 °C | 27.2 ± 11.4 µM | CC(=O)Nc1nc(N)c2c(ccc3[nH]ccc32)n1 [Compound 7a] | – |
| – | 202 to 204 °C | – | CC(=O)n1ccc2c3c(N)nc(N)nc3ccc21 [Compound 2a] | solubility (13C NMR sample) [8]: so limited |
| 8.91 ± 1.28 µM | – | 8.46 ± 2.56 µM | Nc1nc(NC(=O)c2ccc3ccccc3c2)c2c(ccc3[nH]ccc32)n1 [Compound 4f] | – |
| – | 196 to 198 °C | – | CCCC(=O)n1ccc2c3c(N)nc(N)nc3ccc21 [Compound 2c] | solubility (13C NMR sample) [8]: so limited |
| 20.3 ± 7.4 µM | 226 to 228 °C | 18.7 ± 2.24 µM | CCC(=O)Nc1nc(N)nc2ccc3[nH]ccc3c12 [Compound 4b] | – |
| 26.3 ± 7.4 µM | 224 to 226 °C | 26.9 ± 12.9 µM | CCCC(=O)Nc1nc(N)nc2ccc3[nH]ccc3c12 [Compound 4c] | – |
| 0.12 µM | – | – | COc1cccc2c1C(=O)c1c(O)c3c(c(O)c1C2=O)C[C@@](O)(C(=O)CO)C[C@@H]3O[C@H]1C[C@H](N)[C@H](O)[C@H](C)O1 [Dox, doxorubicin, reference compound] | concentration toxic to normal HMEC cells ([3]; toxic at a concentration as low as): ≤ 100 nM |
| 29.8 ± 8.41 µM | 288 to 290 °C | 39.7 ± 22.5 µM | CC(C)C(=O)Nc1nc(N)c2c(ccc3[nH]ccc32)n1 [Compound 7d] | – |
| – | 188 to 190 °C | – | Nc1nc(N)c2c(ccc3c2ccn3C(=O)c2ccc3ccccc3c2)n1 [Compound 2f] | – |
| – | 210 to 212 °C | – | CCC(=O)n1ccc2c3c(N)nc(N)nc3ccc21 [Compound 2b] | solubility (13C NMR sample) [8]: so limited |
| 27.4 ± 4.52 µM | 262 to 264 °C | 25.5 ± 9.93 µM | CCCC(=O)Nc1nc(N)c2c(ccc3[nH]ccc32)n1 [Compound 7c] | – |

| SMILES | GI50 [1] | melting point | GI50 [5] | also measured |
| --- | --- | --- | --- | --- |
| CC(C)(C)[Si](C)(C)OCCCCC(=O)n1ccc2c3c(N)nc(N)nc3ccc21 [Compound 2e] | – | 173 to 175 °C | – | stability in 0.1% TFA [9]: instability |
| CC(C)(C)[Si](C)(C)OCCCCC(=O)Nc1nc(N)nc2ccc3[nH]ccc3c12 [Compound 4e] | 11.1 ± 1.73 µM | 172 to 174 °C | 15.6 ± 7.66 µM | stability in 0.1% TFA [9]: instability |
| CC(C)(C)[Si](C)(C)OCCCCC(=O)Nc1nc(N)c2c(ccc3[nH]ccc32)n1 [Compound 7e] | 2.24 ± 0.4 µM | 140 to 142 °C | 2.43 ± 0.13 µM | stability in 0.1% TFA [9]: instability |
| CCCCOc1cc2ccccc2cc1C(=O)Nc1nc(N)c2c(ccc3[nH]ccc32)n1 [Compound 7g, N-(1-Amino-7H-pyrrolo[3,2-f]quinazolin-3-yl)-3-butoxy-2-naphthamide] | 0.1 ± 0.079 µM | – | 0.65 ± 0.43 µM | – |
